# Measured values as given in US20240115647A1, “COMPOSITION COMPRISING FLAVANOL MONOMERS AND E-VINIFERIN” (ACTIV'INSIDE, priority 2020, published 2024).
# Tested on: tyrosinase
# Assay: tyrosinase activity, colorimetric reaction with L-DOPA substrate (absorbance 475 nm)
# Assay type: biochemical
# Experimental: The aim of this test is to model the activity of an enzyme, tyrosinase (the enzyme responsible for melanin formation) using an experimental design and to determine the influence of flavanol monomers and ε-viniferin on enzymatic activity with respect to a specific substrate (L-DOPA). Tyrosinase activity was measured in vitro using a colorimetric reaction. Under the action of tyrosinase, L-DOPA is oxidized and converted into dopaquinone. The formation of dopaquinone can thus be monitored by spectrometry at 475 nm.
# In a 96-well plate, the following amounts were deposited in each well: 80 μl phosphate buffer (50 mM), 40 μl of sample to be tested or buffer, 40 μl of tyrosinase at 125 U/ml. At the last moment, 40 μl of L-DOPA (2.5 mM) was added to initiate the reaction and then absorbance at 475 nm was monitored for 25 min.
# For each well, the absorbance values over time (Ax) are normalized relative to the first absorbance measurement (AT0) according to the following formula: Normalized absorbance (An)=Ax−AT0. The normalized absorbances are then corrected (for each time) according to the following formula: Corrected normalized absorbance (Anc)=An−ACLT, where ACLT is the value of the normalized absorbance of the reagents in the presence of the sample (buffer+tyrosinase+sample). […]
# To this end, tyrosinase activity was monitored and measured in vitro using the colorimetric reaction described above. […]
compound,measurement,setting,value
Oc1ccc(/C=C/c2cc(O)cc3c2[C@@H](c2cc(O)cc(O)c2)[C@H](c2ccc(O)cc2)O3)cc1 [ε-viniferin],effect on tyrosinase activity with respect to the L-DOPA substrate,"experimental design: flavanol monomers 1-50 μM, ε-viniferin 0.0050-0.05 μM, response at 7 min",no significant effect
same,Estimated Coefficient (coded factors) of the model of corrected normalized absorbance,"linear-quadratic model, central composite design, negative = reduces tyrosinase activity",−0.0045
